Measurements taken from patent publication US20220315554A1, “COMPOUNDS COMPRISING A […] LIGAND AND USE THEREOF” (priority 2019, published 2022).
Numbered stars: 1 amine (or outer) side, 2 acyl side, 3 side chain; on linkers, the order of the positions; unused ones are H or OH. Bridge positions count the residues as written; N and C are the ends. Square brackets hold non-standard residues; d marks the D form. Peptide text beside a SMILES is read from it. * marks the point of attachment. X19 = NC(=O)[C@H](CCCCNC(=O)CN1CCN(CC(=O)O)CCN(CC(=O)O)CCN(CC(=O)O)CC1)NC(=O)CCC(=O)NCCCOCCOCCNCCCN*; TBMB(SCH2CH2NH-DOTA) = O=C(O)CN1CCN(CC(=O)O)CCN(CC(=O)NCCSCc2cc(C[*:1])cc(C[*:2])c2)CCN(CC(=O)O)CC1; X24 = NCCNCC(CNCCN)C(=O)N[C@@H](CCC(=O)NC[C@H](O)[C@@H](O)[C@H](O)[C@H](O)CO)C(=O)NCCCOCCOCCOCCCN*; X1 = O=C(O)CN1CCN(CC(=O)O)CCN(CC(=O)N2CCN(Cc3cc(C[*:1])cc(C[*:2])c3)CC2)CCN(CC(=O)O)CC1; mXylylene = c1cc(C[*:1])cc(C[*:2])c1; Pentanesulfonyl = CCCCCS(=O)(=O)*; Suc = O=C(CCC(=O)[*:2])[*:1]; 3Amb = NCc1cccc(C(=O)O)c1; Nle = CCCC[C@H](N)C(=O)O; Hexanoyl = CCCCCC(=O)*; GABA = NCCCC(=O)O; βAla = NCCC(=O)O

Assays:
[1] = molecular target: T1, FAP-expressing human WI-38 fibroblasts (Homo sapiens, UniProt Q12884); experiment: Competitive FACS binding assay; conditions: pIC50 Category (FACS), competition with 3 nM Cy5-labeled compound, 4° C., 1 hour
T1 construct: FAP-expressing human WI-38 fibroblasts (ECACC) were cultured in EMEM; host or cells: WI-38 human fibroblasts
T1 sequence (Q12884 1-760): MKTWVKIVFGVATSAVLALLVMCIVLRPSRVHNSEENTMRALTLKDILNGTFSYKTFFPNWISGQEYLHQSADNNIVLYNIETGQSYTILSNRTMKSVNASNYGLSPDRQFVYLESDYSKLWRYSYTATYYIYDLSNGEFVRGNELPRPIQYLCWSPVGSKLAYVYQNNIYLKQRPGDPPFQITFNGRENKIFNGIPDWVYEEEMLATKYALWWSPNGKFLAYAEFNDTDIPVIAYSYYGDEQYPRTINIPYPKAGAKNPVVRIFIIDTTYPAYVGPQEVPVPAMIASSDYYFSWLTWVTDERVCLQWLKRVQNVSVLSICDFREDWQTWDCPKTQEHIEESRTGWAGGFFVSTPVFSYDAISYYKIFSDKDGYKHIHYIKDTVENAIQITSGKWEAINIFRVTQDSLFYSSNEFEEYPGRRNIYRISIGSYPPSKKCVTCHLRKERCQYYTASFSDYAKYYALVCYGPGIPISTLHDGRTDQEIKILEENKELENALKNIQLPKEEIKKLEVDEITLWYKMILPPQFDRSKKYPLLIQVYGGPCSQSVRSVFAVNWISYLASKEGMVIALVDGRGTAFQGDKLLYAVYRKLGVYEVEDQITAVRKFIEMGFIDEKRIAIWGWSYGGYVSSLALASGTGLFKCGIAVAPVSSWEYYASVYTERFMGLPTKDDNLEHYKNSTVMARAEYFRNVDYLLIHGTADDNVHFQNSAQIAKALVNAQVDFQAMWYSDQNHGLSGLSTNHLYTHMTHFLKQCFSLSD
Method: Cells were analyzed in an Attune NxT flow cytometer. […]

Human recombinant FAP [2] = molecular target: T2, Human recombinant FAP (Homo sapiens, UniProt Q12884); experiment: FRET-based FAP protease activity assay; format: biochemical; design: purchased R&D systems 3715-SE; conditions: pIC50 Category (Activity), FRET substrate, 37° C.
T2 sequence (Q12884 1-760): T1 sequence (Q12884 1-760)

Human recombinant FAP [3] = molecular target: T2, Human recombinant FAP; experiment: Surface plasmon resonance (Biacore) assay; format: binding

Compound	IC50 ([1]; WI-38 fibroblasts)	IC50 (Human recombinant FAP [2]; recombinant human FAP)	Kd (Human recombinant FAP [3])	IC50 [1]	IC50 (Human recombinant FAP [2])
CCCCCC(=O)N[C@H]1CSCc2cccc(c2)CSC[C@@H](C(=O)N[C@@H](CC(=O)O)C(=O)NCCCNCCOCCOCCCNC(=O)CCC(=O)N[C@@H](CCCCNC(=O)CN2CCN(CC(=O)O)CCN(CC(=O)O)CCN(CC(=O)O)CC2)C(N)=O)NC(=O)[C@H](Cc2ccccc2)NC(=O)[C@H](CCC(N)=O)NC(=O)[C@H]([C@@H](C)O)NC(=O)[C@@H]2CCCN2C(=O)[C@@H]2CCCN2C1=O [3BP-3395, Hex-[Cys(3MeBn)-Pro-Pro-Thr-Gln-Phe-Cys]-Asp-Ttds-Lys(DOTA)-NH2] (Hexanoyl-CPPTQFCD-X19; linker 1-7 via mXylylene)	< 10 nM	< 10 nM	< 10 nM		
CCCCCC(=O)N[C@H]1CSCc2cccc(c2)CSC[C@@H](C(=O)N[C@@H](CC(=O)O)C(=O)NCc2cccc(C(=O)N[C@@H](CCCNC(=N)N)C(N)=O)c2)NC(=O)[C@H](Cc2ccccc2)NC(=O)[C@H](CCC(=O)O)NC(=O)[C@H]([C@@H](C)O)NC(=O)[C@@H]2CCCN2C(=O)[C@@H]2CCCN2C1=O [3BP-3324, Hex-[Cys(3MeBn)-Pro-Pro-Thr-Glu-Phe-Cys]-Asp-Mamb-Arg-NH2] (Hexanoyl-CPPTEFCD[3Amb]R-NH2; linker 1-7 via mXylylene)	< 10 nM	< 10 nM	< 10 nM		
CCCCCC(=O)N[C@H]1CSCc2cc(CSCCNC(=O)CN3CCN(CC(=O)O)CCN(CC(=O)O)CCN(CC(=O)O)CC3)cc(c2)CSC[C@@H](C(=O)NCC(=O)O)NC(=O)[C@H](Cc2ccccc2)NC(=O)[C@H](CCC(N)=O)NC(=O)[C@H]([C@@H](C)O)NC(=O)[C@@H]2CCCN2C(=O)[C@@H]2CCCN2C1 [3BP-3656, Hex-[Cys(tMeBn(DOTA-AET))-Pro-Pro-Thr-Gln-Phe-Cys]-Gly-OH]	< 10 nM	< 10 nM	< 10 nM		
CCCCCS(=O)(=O)N[C@H]1CSCc2cc(cc(CN3CCN(C(=O)CN4CCN(CC(=O)O)CCN(CC(=O)O)CCN(CC(=O)O)CC4)CC3)c2)CSC[C@@H](C(=O)N[C@@H](CC(=O)O)C(=O)O)NC(=O)[C@H](Cc2ccccc2)NC(=O)[C@H](CCC(N)=O)NC(=O)[C@H]([C@@H](C)O)NC(=O)[C@@H]2CCCN2C(=O)[C@@H]2CCCN2C1=O [3BP-3692, Pentyl-SO2-[Cys(tMeBn(DOTA-PP))-Pro-Pro-Thr-Gln-Phe-Cys]-Asp-NH2] (Pentanesulfonyl-CPPTQFCD-OH; linker 1-7 via X1)			< 10 nM	< 10 nM	< 10 nM
CCCCCC(=O)N[C@H]1CSCc2cc(CSCCNC(=O)CN3CCN(CC(=O)O)CCN(CC(=O)O)CCN(CC(=O)O)CC3)cc(c2)CSC[C@@H](C(=O)N[C@@H](CC(=O)O)C(=O)O)NC(=O)[C@H](Cc2ccccc2)NC(=O)[C@H](CCC(N)=O)NC(=O)[C@H]([C@@H](C)O)NC(=O)[C@@H]2CCCN2C(=O)[C@@H]2CCCN2C1=O [3BP-3665, Hex-[Cys(tMeBn(DOTA-AET))-Pro-Pro-Thr-Gln-Phe-Cys]-Asp-OH] (Hexanoyl-CPPTQFCD-OH; linker 1-7 via TBMB(SCH2CH2NH-DOTA))			< 10 nM	< 10 nM	< 10 nM
CCCC[C@H](NC(=O)CCC(=O)NCCCOCCOCCOCCCNC(=O)[C@H](CCC(=O)NC[C@H](O)[C@@H](O)[C@H](O)[C@H](O)CO)NC(=O)C(CNCCN)CNCCN)C(=O)N[C@H]1CSCc2cccc(c2)CSC[C@@H](C(=O)O)NC(=O)[C@H](Cc2ccccc2)NC(=O)[C@H](CCC(=O)O)NC(=O)[C@H]([C@@H](C)O)NC(=O)[C@@H]2CCCN2C(=O)[C@@H]2CCCN2C1=O [3BP-4246, N4Ac-Glu(AGLU)-Ttds-Nle-[Cys-(3MeBn)-Pro-Pro-Thr-Gln-Phe-Cys]-OH] ({X24-Suc}-[Nle]CPPTEFC-OH; linker 2-8 via mXylylene)			< 10 nM	10 to 79.4 nM	10 to 79.4 nM
CCCCCC(=O)N[C@H]1CSCc2cc(CSCCNC(=O)CN3CCN(CC(=O)O)CCN(CC(=O)O)CCN(CC(=O)O)CC3)cc(c2)CSC[C@@H](C(=O)NCCCC(=O)O)NC(=O)[C@H](Cc2ccccc2)NC(=O)[C@H](CCC(N)=O)NC(=O)[C@H]([C@@H](C)O)NC(=O)[C@@H]2CCCN2C(=O)[C@@H]2CCCN2C1 [3BP-3657, Hex-[Cys(tMeBn(DOTA-AET))-Pro-Pro-Thr-Gln-Phe-Cys]-Gab-OH]	< 10 nM	< 10 nM	< 10 nM		
CCCCCC(=O)N[C@H]1CSCc2cccc(c2)CSC[C@@H](C(=O)N[C@@H](CC(=O)O)C(=O)NCCCC(=O)N[C@@H](CCCNC(=N)N)C(N)=O)NC(=O)[C@H](Cc2ccccc2)NC(=O)[C@H](CCC(=O)O)NC(=O)[C@H]([C@@H](C)O)NC(=O)[C@@H]2CCCN2C(=O)[C@@H]2CCCN2C1=O [3BP-3300, Hex-[Cys(3MeBn)-Pro-Pro-Thr-Glu-Phe-Cys]-Asp-Gab-Arg-NH2] (Hexanoyl-CPPTEFCD[GABA]R-NH2; linker 1-7 via mXylylene)	< 10 nM	< 10 nM	< 10 nM		
CCCCCC(=O)N[C@H]1CSCc2cccc(c2)CSC[C@@H](C(=O)N[C@@H](CC(=O)O)C(=O)NCCCNCCOCCOCCCNC(=O)CCC(=O)N[C@@H](CCCCNC(=O)CN2CCN(CC(=O)O)CCN(CC(=O)O)CCN(CC(=O)O)CC2)C(N)=O)NC(=O)[C@H](Cc2ccccc2)NC(=O)[C@H](CCC(=O)O)NC(=O)[C@H]([C@@H](C)O)NC(=O)[C@@H]2CCCN2C(=O)[C@@H]2CCCN2C1=O [3BP-3396, Hex-[Cys(3MeBn)-Pro-Pro-Thr-Glu-Phe-Cys]-Asp-Ttds-Lys(DOTA)-NH2] (Hexanoyl-CPPTEFCD-X19; linker 1-7 via mXylylene)	< 10 nM	< 10 nM	< 10 nM		
CCCCCC(=O)N[C@H]1CSCc2cc(CSCCNC(=O)CCC(=O)NCCCOCCOCCOCCCNC(=O)CN(CCN(CCN(CC(=O)O)CC(=O)O)CC(=O)O)CC(=O)O)cc(c2)CSC[C@@H](C(=O)O)NC(=O)[C@H](Cc2ccccc2)NC(=O)[C@H](CCC(N)=O)NC(=O)[C@H]([C@@H](C)O)NC(=O)[C@@H]2CCCN2C(=O)[C@@H]2CCCN2C1=O [3BP-4352, Hex-[Cys-(tMeBn(DTPA2-Ttds-AET))-Pro-Pro-Thr-Gln-Phe-Cys]-OH]				100 to 794 nM	10 to 79.4 nM
CCCCCC(=O)N[C@H]1CSCc2cc(CSCCNC(=O)CN3CCN(CC(=O)O)CCN(CC(=O)O)CCN(CC(=O)O)CC3)cc(c2)CSC[C@@H](C(=O)O)NC(=O)[C@H](Cc2cccnc2)NC(=O)[C@H](CCC(N)=O)NC(=O)[C@H]([C@@H](C)O)NC(=O)[C@@H]2CCCN2C(=O)[C@@H]2CCCN2C1 [3BP-3664, Hex-[Cys(tMeBn(DOTA-AET))-Pro-Pro-Thr-Gln-Mpa-Cys]-OH]				< 10 nM	< 10 nM
CCCCCC(=O)N[C@H]1CSCc2cc(CSCCNC(=O)CCC(=O)NCCCOCCOCCOCCCNC(=O)[C@H](CS)NC(=O)[C@H](CC(=O)O)NC(=O)[C@@H](N)CC(=O)O)cc(c2)CSC[C@@H](C(=O)O)NC(=O)[C@H](Cc2ccccc2)NC(=O)[C@H](CCC(N)=O)NC(=O)[C@H]([C@@H](C)O)NC(=O)[C@@H]2CCCN2C(=O)[C@@H]2CCCN2C1=O [3BP-4302, Hex-[Cys-(tMeBn(H-Asp-Asp-Cys-Ttds-AET))-Pro-Pro-Thr-Gln-Phe-Cys]-OH]				100 to 794 nM	10 to 79.4 nM
CCCCCC(=O)N[C@H]1CSCc2cccc(c2)CSC[C@@H](C(=O)NCCC(=O)O)NC(=O)[C@H](Cc2ccccc2)NC(=O)[C@H](CCC(=O)O)NC(=O)[C@H]([C@@H](C)O)NC(=O)[C@@H]2CCCN2C(=O)[C@@H]2CCCN2C1=O [3BP-3371, Hex-[Cys(3MeBn)-Pro-Pro-Thr-Glu-Phe-Cys]-Bal-OH] (Hexanoyl-CPPTEFC[βAla]-OH; linker 1-7 via mXylylene)	< 10 nM	10 to 79.4 nM			
